Experimental data reported in patent US20240083857A1, “2-Methyl-Quinazolines” (Bayer Pharma Aktiengesellschaft, priority 2017, published 2024).
Where two headings read alike, the source gives them in different places.

Columns and labels:
[1] = target: K-Ras^G12C : hSOS1 interaction (Homo sapiens, UniProt Q07889); test: Biochemical assay 1: K-Ras^G12C interaction assay with hSOS1 (HTRF); type: binding; settings: for IC50: E-notation values, unit inferred, read-out: Assay 1 (KRAS-SOS interaction) IC50; for inhibition at 20 µM: read-out: Assay 1 (KRAS-SOS Interaction) activity expressed as % inhibition at 20 μM
[2] = target: human SOS1 (loading of human K-Ras^G12C-GDP with fluorescent GTP-analog) (Homo sapiens, UniProt Q07889); test: Biochemical assay 3: K-Ras^G12C activation assay by hSOS1 (HTRF); settings: for inhibition at 20 µM: read-out: Assay 3 (KRAS-Activation by SOS no GTP) activity expressed as % inhibition at 20 μM
[3] = E-notation values, unit inferred, read-out: Assay 3 (KRAS-Activation) IC50

| Compound | IC50 [1] [nM] | IC50 [2, 3] [nM] | inhibition at 20 µM [1] [%] | inhibition at 20 µM ([2]; no GTP) [%] | IC50 ([2]; no GTP, read-out: Assay 3 (KRAS-Activation by SOS no GTP) activity expressed as IC50) [nM] |
| --- | --- | --- | --- | --- | --- |
| Cc1nc(NC(C)c2ccc(Br)s2)c2cc(N3CCN(C)CC3)ccc2n1 (centres unmarked) [Example 416, N-[1-(5-bromothiophen-2-yl)ethyl]-2-methyl-6-(4-methylpiperazin-1-yl)quinazolin-4-amine] | 867 | 1140 |  |  |  |
| COc1cc2nc(C)nc(NC(C)c3ccc(-c4cc(Cl)ccc4CNC(=O)OC(C)(C)C)s3)c2cc1OC (centres unmarked) [Example 387, tert-butyl [4-chloro-2-(5-{1-[(6,7-dimethoxy-2-methylquinazolin-4-yl)amino]ethyl}-thiophen-2-yl)benzyl]carbamate] | 1170 | 8320 |  |  |  |
| COc1ccc(-c2ccc(C(C)Nc3nc(C)nc4cc(OC)c(OC)cc34)s2)c(CN(C)C)c1 (centres unmarked) [Example 439, N-[1-(5-{2-[(dimethylamino)methyl]-4-methoxyphenyl}thiophen-2-yl)ethyl]-6,7-dimethoxy-2-methylquinazolin-4-amine] | 277 | 229 |  |  |  |
| COc1cc2nc(C)nc(NC(C)c3ccc(-c4ccccc4C(O)CO)s3)c2cc1OC (centres unmarked) [Example 403] | 442 | 632 |  |  |  |
| COc1cc2nc(C)nc(NC(C)c3ccc(-c4c(Cl)cccc4CNC(=O)OC(C)(C)C)s3)c2cc1OC (centres unmarked) [Example 408, tert-butyl [3-chloro-2-(5-{1-[(6,7-dimethoxy-2-methylquinazolin-4-yl)amino]ethyl}thiophen-2-yl)benzyl]carbamate] | 533 | 1020 |  |  |  |
| Cc1nc(NC(C)c2ccc(-c3ccccc3CN(C)C)s2)c2cc(N3CCN(Cc4cccnc4)CC3)ccc2n1 (centres unmarked) [Example 426, N-[1-(5-{2-[(dimethylamino)methyl]phenyl}thiophen-2-yl)ethyl]-2-methyl-6-[4-(pyridin-3-ylmethyl)piperazin-1-yl]quinazolin-4-amine] | 33.2 | 31.5 |  |  |  |
| COc1cc2nc(C)nc(N[C@H](C)c3cccc(-c4ccnc(O)c4)c3)c2cc1OC [Example 388, 4-(3-{(1R)-1-[(6,7-dimethoxy-2-methylquinazolin-4-yl)amino]ethyl}phenyl)pyridin-2-ol] | 205 | 757 |  |  |  |
| CNC(=O)Nc1ccc2nc(C)nc(NC(C)c3ccc(-c4ccccc4CN(C)C)s3)c2c1 (centres unmarked) [Example 457, 1-(4-{[1-(5-{2-[(dimethylamino)methyl]phenyl}thiophen-2-yl)ethyl]amino}-2-methylquinazolin-6-yl)-3-methylurea] | 295 | 638 |  |  |  |
| COc1cc2nc(C)nc(NC(C)c3cccc(OCc4ccccc4)c3)c2cc1OC (centres unmarked) [Example 389, N-{1-[3-(benzyloxy)phenyl]ethyl}-6,7-dimethoxy-2-methylquinazolin-4-amine] | 6690 | 16900 |  |  |  |
| COc1cc2nc(C)nc(NC(C)c3ccc(-c4ccccc4CN(C)C)s3)c2cc1OC (single isomer, unassigned) [Example 391, N-[1-(5-{2-[(dimethylamino)methyl]phenyl}thiophen-2-yl)ethyl]-6,7-dimethoxy-2-methylquinazolin-4-amine] | 15.5 | 37.9 |  |  |  |
| Cc1nc(NC(C)c2ccc(-c3ccccc3CN(C)C)s2)c2cc(NCCN3CCOCC3)ccc2n1 (centres unmarked) [Example 433, N4-[1-(5-{2-[(dimethylamino)methyl]phenyl}-2-thienyl)ethyl]-2-methyl-N6-[2-(morpholin-4-yl)ethyl]quinazoline-4,6-diamine] | 77.1 | 76.9 |  |  |  |
| COc1cc2nc(C)nc(NC(C)c3c(C)ccc4[nH]ncc34)c2cc1OC (centres unmarked) [Example 7, 6,7-dimethoxy-2-methyl-N-[1-(5-methyl-1H-indazol-4-yl)ethyl]quinazolin-4-amine] |  |  | 44 | 33 |  |
| COc1cc2nc(C)nc(NC(C)c3cc(C)c(-c4ccccc4CN(C)C)s3)c2cc1OC (centres unmarked) [Example 400, N-[1-(5-{2-[(dimethylamino)methyl]phenyl}-4-methyl-2-thienyl)ethyl]-6,7-dimethoxy-2-methylquinazolin-4-amine] | 78.7 | 76.6 |  |  |  |
| COCC(=O)NCc1cc(F)ccc1-c1ccc(C(C)Nc2nc(C)nc3cc(OC)c(OC)cc23)s1 (centres unmarked) [Example 383, N-[2-(5-{1-[(6,7-dimethoxy-2-methylquinazolin-4-yl)amino]ethyl}thiophen-2-yl)-5-fluorobenzyl]-2-methoxyacetamide] | 984 | 5110 |  |  |  |
| Cc1nc(NC(C)c2ccc(-c3ccccc3CN(C)C)s2)c2cc(N3CCC(N(C)C)C3)ccc2n1 (centres unmarked) [Example 418, N-[1-(5-{2-[(dimethylamino)methyl]phenyl}thiophen-2-yl)ethyl]-6-[3-(dimethylamino)pyrrolidin-1-yl]-2-methylquinazolin-4-amine] | 86.6 | 45.1 |  |  |  |
| Cc1nc(NC(C)c2ccc(Br)s2)c2cc(N3CCN(Cc4ccccc4)C(=O)C3)ccc2n1 (centres unmarked) [Example 441, 1-benzyl-4-(4-{[1-(5-bromothiophen-2-yl)ethyl]amino}-2-methylquinazolin-6-yl)piperazin-2-one] | 16100 | 15100 |  |  |  |

| Compound | IC50 [1] [nM] | IC50 [2, 3] [nM] | inhibition at 20 µM [1] [%] | inhibition at 20 µM ([2]; no GTP) [%] | IC50 ([2]; no GTP, read-out: Assay 3 (KRAS-Activation by SOS no GTP) activity expressed as IC50) [nM] |
| --- | --- | --- | --- | --- | --- |
| COc1cc2nc(C)nc(NC(C)c3ccc(-c4ccnc(O)c4)s3)c2cc1OC (centres unmarked) [Example 410, 4-(5-{1-[(6,7-dimethoxy-2-methylquinazolin-4-yl)amino]ethyl}-2-thienyl)pyridin-2-ol] | 4230 | > 20000 |  |  |  |
| COCCNCc1ccccc1-c1ccc(C(C)Nc2nc(C)nc3cc(OC)c(OC)cc23)s1 (centres unmarked) [Example 369, 6,7-dimethoxy-N-{1-[5-(2-{[(2-methoxyethyl)amino]methyl}phenyl)thiophen-2-yl]ethyl}-2-methylquinazolin-4-amine] | 99.5 | 169 |  |  |  |
| COc1cc2nc(C)nc(NC(C)c3ccc(-c4ccccc4C(C)(C)N)s3)c2cc1OC (centres unmarked) [Example 455, N-[1-{5-[2-(2-aminopropan-2-yl)phenyl]thiophen-2-yl}ethyl]-6,7-dimethoxy-2-methylquinazolin-4-amine] | 397 | 769 |  |  |  |
| Cc1nc(NC(C)c2ccc(-c3ccccc3CN(C)C)s2)c2cc(NC(=O)N(C)C)ccc2n1 (centres unmarked) [Example 440, 3-(4-{[1-(5-{2-[(dimethylamino)methyl]phenyl}thiophen-2-yl)ethyl]amino}-2-methylquinazolin-6-yl)-1,1-dimethylurea] | 706 | 921 |  |  |  |
| COc1ccc(-c2ccc(C(C)Nc3nc(C)nc4cc(OC)c(OC)cc34)s2)c(C)c1 (centres unmarked) [Example 422, 6,7-dimethoxy-N-{1-[5-(4-methoxy-2-methylphenyl)thiophen-2-yl]ethyl}-2-methylquinazolin-4-amine] | 1470 | 3600 |  |  |  |
| COc1cc2nc(C)nc(NC(C)c3ccc(-c4ccccc4CN4CCN(C(=O)OC(C)(C)C)CC4)s3)c2cc1OC (centres unmarked) [Example 306, tert-butyl 4-[2-(5-{1-[(6,7-dimethoxy-2-methylquinazolin-4-yl)amino]ethyl}thiophen-2-yl)benzyl]piperazine-1-carboxylate] |  |  | 45 |  | 7940 |
| COc1cc2nc(C)nc(NC(C)c3cc(C)c(-c4cnc5n4CCC5)s3)c2cc1OC (centres unmarked) [Example 381, N-{1-[5-(6,7-dihydro-5H-pyrrolo[1,2-a]imidazol-3-yl)-4-methylthiophen-2-yl]ethyl}-6,7-dimethoxy-2-methylquinazolin-4-amine] | 490 | 2330 |  |  |  |
| Cc1nc(NC(C)c2ccc(Br)s2)c2cc(N3CCC(N(C)C)C3)ccc2n1 (centres unmarked) [Example 414, N-[1-(5-bromothiophen-2-yl)ethyl]-6-[3-(dimethylamino)pyrrolidin-1-yl]-2-methylquinazolin-4-amine] | 1380 | 1460 |  |  |  |
| COc1cc2nc(C)nc(NC(C)c3ccc(-c4ccccc4CC(N)=O)s3)c2cc1OC (centres unmarked) [Example 394, 2-[2-(5-{1-[(6,7-dimethoxy-2-methylquinazolin-4-yl)amino]ethyl}thiophen-2-yl)phenyl]acetamide] | 405 | 2290 |  |  |  |
| COC(=O)c1cc(-c2ccc(C(C)Nc3nc(C)nc4cc(OC)c(OC)cc34)s2)nn1C (centres unmarked) [Example 237, methyl 3-(5-{1-[(6,7-dimethoxy-2-methylquinazolin-4-yl)amino]ethyl}thiophen-2-yl)-1-methyl-1H-pyrazole-5-carboxylate] |  |  | 31 | 10 |  |
| COc1cc2nc(C)nc(NC(C)c3ccc(-c4ccc(F)cc4CNC(=O)CO)s3)c2cc1OC (centres unmarked) [Example 382, N-[2-(5-{1-[(6,7-dimethoxy-2-methylquinazolin-4-yl)amino]ethyl}thiophen-2-yl)-5-fluorobenzyl]-2-hydroxyacetamide] | 253 | 748 |  |  |  |
| COc1cc2nc(C)nc(NC(C)c3ccc(-c4ccc(Cl)cc4CN)s3)c2cc1OC (centres unmarked) [Example 398, N-[1-{5-[2-(aminomethyl)-4-chlorophenyl]thiophen-2-yl}ethyl]-6,7-dimethoxy-2-methylquinazolin-4-amine] | 104 | 72.1 |  |  |  |
| COc1cc2nc(C)nc(NC(C)c3ccc(-c4ccccc4CN(C)CC#N)s3)c2cc1OC (centres unmarked) [Example 456, {[2-(5-{1-[(6,7-dimethoxy-2-methylquinazolin-4-yl)amino]ethyl}thiophen-2-yl)benzyl](methyl)amino}acetonitrile] | 162 | 287 |  |  |  |
| COc1cc2nc(C)nc(NC(C)c3ccc(-c4ccccc4CNC4CC4)s3)c2cc1OC (centres unmarked) [Example 370, N-[1-(5-{2-[(cyclopropylamino)methyl]phenyl}thiophen-2-yl)ethyl]-6,7-dimethoxy-2-methylquinazolin-4-amine] | 270 | 363 |  |  |  |
| COc1cc2nc(C)nc(NC(C)c3sc(Br)cc3Cl)c2cc1OC (centres unmarked) [Example 428, N-[1-(5-bromo-3-chlorothiophen-2-yl)ethyl]-6,7-dimethoxy-2-methylquinazolin-4-amine] | 916 | 1020 |  |  |  |
